# Data: patent US20030059771A1, “Compositions and methods related to the Rig tumor suppressor gene and protein” (THE UNITED STATES OF AMERICA, Department of Health and …, priority 2001, published 2003)
# B1: FLAG-Rig: FLAG-tagged recombinant Rig protein expressed from pCDNA-FLAG (protein)
# chain: MPEQSNDYRVVVFGAGGVGKSSLVLRFVKGTFRDTYIPTIEDTYRQVISCDKSVCTLQITDTTGSHQFPAMQRLSISKGHAFILVFSVTSKQSLEELGPIYKLIVQIKGSVEDIPVMLVGNKCDETQREVDTREAQAVAQEWKCAFMETSAKMNYNVKELFQELLTLETRRNMSLNIDGKRSGKQKRTDRVKGKCTLM
# modifications: left off: small tags and cut ends
# Tests used:
# [1] = tested on: prenylation of GST-Rig; assay: In vitro prenylation assay with farnesyl transferase inhibitor (mevalonate prenylation in rabbit reticulocyte lysate); assay type: biochemical, human
# Source text: In this Example, experiments performed to determine the in vitro prenylation characteristics of Rig, Ras and Rap are described. Radiolabelled farnesyl pyrophosphate, radiolabelled geranylgeranyl pyrophosphate or radiolabelled mevalonate were alternatively used as substrates in these assays, to determine the prenylation specificity of each GTPase protein. In addition, the ability of a farnesyl transferase inhibitor (FTI; namely, FTI-277, Calbiochem, Catalog No. 344555) to inhibit the prenylation of Rig, Ras and Rap was examined. Purified GST-Rig, GST-H-Ras (G12V) and GST-Rap fusion proteins were used in the in vitro prenylation experiments. The H-Ras(G12V) protein was included in the prenylation assays to serve as a positive control (Clark et al., Proc. Natl. Acad. Sci. USA 90:4887-4891 [1993]). […]
# (§1) Each in vitro prenylation reaction contained approximately 1-2 μg alternatively of GST, GST-Rig, GST-H-Ras(G12V) or GST-Rap. […] The gel was soaked in fixing buffer (water with 10% methanol and 10% acetic acid), soaked in autofluor (National Diagnostics, Catalog No. LS315) and analyzed by autoradiography.
# (§2) In a second experiment, the sensitivity of mevalonate prenylation of GST-Rig, GST-Ras and GST-Rap, to increasing amounts of farnesyl transferase inhibitor (FTI-277; Calbiochem) was assessed. […] The gel was fixed, soaked in autofluor and analyzed by autoradiography.
# [2] = tested on: prenylation of GST-Ras(G12V); assay: as above; assay type: biochemical
# Source text: (§3) In this Example, experiments performed to determine the in vitro prenylation characteristics of Rig, Ras and Rap are described. Radiolabelled farnesyl pyrophosphate, radiolabelled geranylgeranyl pyrophosphate or radiolabelled mevalonate were alternatively used as substrates in these assays, to determine the prenylation specificity of each GTPase protein. In addition, the ability of a farnesyl transferase inhibitor (FTI; namely, FTI-277, Calbiochem, Catalog No. 344555) to inhibit the prenylation of Rig, Ras and Rap was examined. Purified GST-Rig, GST-H-Ras (G12V) and GST-Rap fusion proteins were used in the in vitro prenylation experiments. The H-Ras(G12V) protein was included in the prenylation assays to serve as a positive control (Clark et al., Proc. Natl. Acad. Sci. USA 90:4887-4891 [1993]).
# (§4) The GST-Rig fusion construct was made by cloning a restriction fragment containing the Rig ORF in frame into the BamHI/EcoRI sites of pGEX-2T (Pharmacia). The vector encoding GST-H-Ras(G12V) was made by subcloning an H-Ras (G12V) BamHI/EcoRI PCR product into the BamHI/EcoRI sites of the pGEX-2T vector. The product was confirmed by sequencing. The GST-Rap fusion construct was produced as described by Clark et al. (Clark et al., J. Biol. Chem., 272:10608-10615 [1997]).
# (§5) The resulting plasmids were transformed into competent XL1-Blue Escherichia coli (Stratagene), and the GST-fusion proteins produced by the bacteria were isolated by standard techniques, according to the manufacturer's protocol (Pharmacia), with minor modification (inclusion of 100 μM GTP and the omission of EDTA from the protein collection/purification buffers). Briefly, bacteria were grown to an OD600 of 0.1 in LB broth. At that time, […] isopropyl-β-thiogalactopyranoside (IPTG) was added to the culture. Four hours following IPTG induction, the bacteria were pelleted at 3,000 RPM for 20 minutes, and resuspended in 5 mL lysis buffer (phosphate buffered saline [PBS] containing 100 μM GTP, 0.1% Triton X−100, leupeptin and aprotinin). The lysate was sonicated, then clarified by centrifugation at 10,000 RPM for 30 minutes. The resulting lysate was used as starting material for glutathione-conjugated agarose bead purification (Sigma) using standard techniques. […]
# as §1, §2
# [3] = tested on: prenylation of GST-Rap; assay: as above; assay type: biochemical; conditions: 1-100 nM FTI concentration range
# Source text: as §3, §4, §5, §1, §2
# [4] = molecular target: T1, Raf-1 (Homo sapiens, UniProt P04049); assay: In vivo Rig/Raf-1 co-immunoprecipitation in HEK-293T cells; assay type: binding; conditions: HEK-293T cells co-transfected with HA-Raf-1
# T1 construct: HA-RAF-1 fusion protein expression vector was produced by generating a full-length BamHI-compatible PCR fragment from a Raf-1 template; expressed in transfected cells; host or cells: HEK-293T
# Source text: In this Example, experiments to assess the ability of Rig and Raf-1 to interact in vivo are described. These experiments (results shown in FIG. 9) used a standard in vivo co-transfection/co-immunoprecipitation protocol, where cultured mammalian cells were cotransfected with FLAG-tagged and/or hemagglutinin (HA)-tagged mammalian expression vector constructs, followed by immunoprecipitation with an anti-Raf-1 antibody and Western immunoblotting using either anti-FLAG or anti-HA primary detection antibodies. The assay was conducted using HEK-293T cells, a transformed human embryonal kidney cell line.
# Briefly, HA-RAF-1 fusion protein expression vector was produced by generating a full-length BamHI-compatible PCR fragment from a Raf-1 template (Fabian et al., Proc. Natl. Acad.Sci. USA 91:5982-5986 [1994]), then cloned into the BamHI site of pCGN, which also encodes the HA epitope (Fiordalisi et al, Methods Enzymol., 332:3-36 [2001]). The construct was confirmed by sequencing.
# A pCDNA3.1 (FLAG) expression vector was produced by inserting the FLAG epitope in-frame upstream of the BamHI restriction site of the multiple cloning region of pCDNA3.1 (Invitrogen). […]
# Following transfection, the cells were cultured in DMEM containing 1% FBS for 48 hours. […] Membranes were then incubated in enhanced chemiluminescent substrate (ECL; Amersham) and the signal was detected on X-ray film.
# [5] = FTI 1-100 nM, [3H]-mevalonate, one hour at 30 °C
Molecule,farnesylation of GST-Rig at 100 nM FTI ([1]; 100 nM FTI concentration),"sensitivity of mevalonate prenylation (radiolabelling) of GST-Rig to FTI [1, 5]",farnesylation of GST-Ras at 100 nM FTI ([2]; 100 nM FTI concentration),"sensitivity of mevalonate prenylation (radiolabelling) of GST-Ras to FTI [2, 5]","sensitivity of GST-Ras prenylation relative to GST-Rig ([2]; comparison of the two proteins, FTI 1-100 nM)",sensitivity of GST-Rap farnesylation by mevalonate to FTI [3],co-precipitation with Raf-1 (anti-Raf-1 immunoprecipitation) [4]
COC(=O)[C@H](CCSC)NC(=O)c1ccc(NC[C@@H](N)CS)cc1-c1ccccc1 [FTI-277],completely abolished,sensitive,completely abolished,sensitive,greater sensitivity,did not show sensitivity,–
B1,–,–,–,–,–,–,coprecipitated
